pIC50: −log10 of the molar value. Entries after “also recorded” stand apart in the source; their conditions may differ. Read-outs that look alike come from different tables or passages of the source.
What was measured:
[1] = tested on: SKBR-3, SKOV-3, PC-3, and U-87 cancer cell lines; assay: MTT assay, four cancer cell lines taken together; format: cell-based, human; details: for Selectivity Index value: IC50 HDF / IC50 cancer cell line, across the four cancer lines; for pIC50: MTT, across SKBR-3, SKOV-3, PC-3, U-87; for level of cytotoxic activity relative to oleanolic acid (1): four cancer cell lines, times more active than oleanolic acid (1)
Method: (§1) The cytotoxic activity of oleanolic acid (mother compound, 1, Figure 2) and its 14 derivatives (3a–3n, Figure 2) was tested in vitro using the standard MTT method based on viability assay, e.g., [44] against carcinoma cell lines: SKBR-3, SKOV-3, PC-3, U-87, and one normal cell line: HDF.
(§2) Human cancer cells: SKBR-3 and SKOV-3 were cultured in McCoy’s Modified Medium; PC-3 was cultured in an F-12K medium; U-87 was cultured in EMEM medium; HDF was cultured in Fibroblast Basal Medium. Each medium was supplemented with 10% fetal bovine serum, 1% L- glutamine, and 1% penicillin/streptomycin solution. The cell lines were kept in an incubator at 37 °C. All the cell lines and mediums were obtained from the American Type Culture Collection (ATCC) supplied by LGC-Standards (Lomianki, Poland).
(§3) The MTT assay was conducted as described earlier, e.g., [44]. In short, this method is based on the reaction between mitochondria enzymes (dehydrogenases) of tested cell lines and 3-(4,5-dimethylthiazol-2-yl)-2,5-diphenyltetrazolium bromide (MTT). The final product of this reaction gives violet formazan crystals. The number of live cells is proportional to the amount of formazan and is represented by the violet dye reagent. The details of the experiments are given in [44].

[2] = tested on: U-87; assay: MTT assay, U-87; format: cell-based, human; details: for U-87 SI: Selectivity Index = IC50 HDF / IC50 U-87; for pIC50: U-87 MG, MTT assay, U-87 human glioblastoma, value (SD)
Method: as §1, §2, §3

[3] = DPPH antioxidant assay; details: Figure 3
From the text: The results of the antioxidant activity of oleanolic acid (1) and Acetylated Oleanolic Acid Dimers (AcOADs) 3a–3n evaluated with CUPRAC and DPPH assays are given in Figure 3. The results are presented as % inhibition of the copper(II) ions and Trolox equivalent (blue bars) calculated from the standard curve, presented in the Supplementary Materials (Supplementary Materials S02, Figure S1) and as % inhibition of the DPPH radical and Trolox equivalent (pink bars), calculated from the standard curve presented in the Supplementary Materials (Supplementary Materials S02, Figure S2).
The CUPRAC reagent (7.5 mM ethanolic 96% neocuproine solution, 10 mM CuCl2 × H2O solution, and an ammonium acetate buffer of pH 7.0) and DPPH reagent (2,2-diphenyl-1-picrylhydrazyl 0.2 mM solution) were applied.
The DPPH assay relies on the ability of an antioxidant to donate a hydrogen atom or an electron to the stable DPPH radical, resulting in its reduction and subsequent color change. In contrast, the CUPRAC method measures the reducing power of a sample by quantifying its ability to convert the Cu-neocuproine reagent complex into the Cu(I) form. The results are presented as % inhibition of the copper(II) ions and Trolox equivalent (blue bars) calculated from the standard curve (Supplementary Materails S02, Figure S1) and as % inhibition of the DPPH radical and Trolox equivalent (pink bars), calculated from the standard curve (Supplementary Materials S02, Figure S2). The details of the experiments are given in [46].

[4] = tested on: HDF; assay: MTT assay, HDF normal cell line; format: cell-based; details: Homo sapiens, value (SD)
Method: as §1, §2, §3

[5] = tested on: PC-3; assay: MTT assay, PC-3; format: cell-based, human; details: for pIC50: value (SD); for B SI: Selectivity Index = IC50 HDF / IC50 of PC-3
Method: as §1, §2, §3

[6] = tested on: SKOV-3; assay: MTT assay, SKOV-3; format: cell-based, human; details: for pIC50: SKOV-3 human ovarian cystadenocarcinoma, value (SD); for SKOV-3 SI: Selectivity Index = IC50 HDF / IC50 SKOV-3
Method: as §1, §2, §3

[7] = tested on: SKBR-3; assay: MTT assay, SKBR-3; format: cell-based, human; details: for pIC50: SKBR-3 human breast adenocarcinoma, value (SD); for SKBR-3 SI: Selectivity Index = IC50 HDF / IC50 SKBR-3
Method: as §1, §2, §3

[8] = MTT assay, PC-3 human prostate carcinoma, read-out: B IC50 (SD)

| SMILES | Selectivity Index value [1] | U-87 SI [2] | pIC50 [2] | DPPH activity (in words) [3] | pIC50 [4] | pIC50 [5, 8] | B SI [5] | pIC50 ([6]; SK-OV-3, MTT assay) | SKOV-3 SI [6] | pIC50 ([1]; Homo sapiens) | level of cytotoxic activity relative to oleanolic acid (1) [1] | pIC50 ([7]; SK-BR-3, MTT assay) | SKBR-3 SI [7] | pIC50 ([2]; Homo sapiens) | pIC50 ([4]; HDF) | pIC50 ([5]; Homo sapiens, PC-3, read-out: B IC50 (SD), MTT assay, PC-3 human prostate carcinoma) | pIC50 ([6]; Homo sapiens, SK-OV-3, MTT assay) | pIC50 ([7]; Homo sapiens, SK-BR-3, MTT assay) | pIC50 [1] |
| --- | --- | --- | --- | --- | --- | --- | --- | --- | --- | --- | --- | --- | --- | --- | --- | --- | --- | --- | --- |
| CC1(C)CCC2(C(=O)OCCCCCCCCCCCCOC(=O)C34CCC(C)(C)CC3C3=CCC5C6(C)CCC(O)C(C)(C)C6CCC5(C)C3(C)CC4)CCC3(C)C(=CCC4C5(C)CCC(O)C(C)(C)C5CCC43C)C2C1 (centres unmarked) [Compound 2n, reference compound] | higher than 1.00 |  |  |  |  |  |  |  |  |  |  |  |  |  |  |  |  |  |  |
| CC(=O)OC1CCC2(C)C(CCC3(C)C2CC=C2C4CC(C)(C)CCC4(C(=O)OCCCCCCCCCCOC(=O)C45CCC(C)(C)CC4C4=CCC6C7(C)CCC(OC(C)=O)C(C)(C)C7CCC6(C)C4(C)CC5)CCC23C)C1(C)C (centres unmarked) [Compound 3l] |  | 0.66 | 5.26 | higher antioxidant activity than OA; also recorded: highest activity; also recorded: extremely high DPPH activity | 5.44 | 5.23 | 0.61 | 5.23 | 0.61 | 5.15 to 5.33 | approximately 3 times | 5.23 | 0.61 |  |  |  |  |  |  |
| CC(=O)OC1CCC2(C)C(CCC3(C)C2CC=C2C4CC(C)(C)CCC4(C(=O)OCCCCCOC(=O)C45CCC(C)(C)CC4C4=CCC6C7(C)CCC(OC(C)=O)C(C)(C)C7CCC6(C)C4(C)CC5)CCC23C)C1(C)C (centres unmarked) [Compound 3g] | higher than 1.00 | 1.38 | 5.39 |  | 5.25 | 5.39 | 1.38 | 5.37 | 1.34 | 5.35 to 5.60 |  | 5.33 | 1.22 |  |  |  |  |  |  |
| CC(=O)OC1CCC2(C)C(CCC3(C)C2CC=C2C4CC(C)(C)CCC4(C(=O)OCC=CCOC(=O)C45CCC(C)(C)CC4C4=CCC6C7(C)CCC(OC(C)=O)C(C)(C)C7CCC6(C)C4(C)CC5)CCC23C)C1(C)C (centres unmarked) [Compound 3f] | about 0.5 | 0.59 |  |  |  |  | 0.60 |  | 0.58 | 5.15 to 5.33 | approximately 3 times |  | 0.57 | 5.17 | 5.40 | 5.17 | 5.16 | 5.15 |  |
| CC(=O)OC1CCC2(C)C(CCC3(C)C2CC=C2C4CC(C)(C)CCC4(C(=O)OCCCCOC(=O)C45CCC(C)(C)CC4C4=CCC6C7(C)CCC(OC(C)=O)C(C)(C)C7CCC6(C)C4(C)CC5)CCC23C)C1(C)C (centres unmarked) [Compound 3d] | higher than 1.00 | 1.35 | 5.45 |  | 5.32 | 5.44 | 1.33 | 5.54 | 1.65 | 5.35 to 5.60 |  | 5.52 | 1.58 |  |  |  |  |  |  |
| CC(=O)OC1CCC2(C)C(CCC3(C)C2CC=C2C4CC(C)(C)CCC4(C(=O)OCCCCCCOC(=O)C45CCC(C)(C)CC4C4=CCC6C7(C)CCC(OC(C)=O)C(C)(C)C7CCC6(C)C4(C)CC5)CCC23C)C1(C)C (centres unmarked) [Compound 3h] | higher than 1.00 | 1.47 | 5.33 |  | 5.16 | 5.29 | 1.33 | 5.33 | 1.45 | 5.15 to 5.33 | approximately 3 times | 5.28 | 1.30 |  |  |  |  |  |  |
| CC(=O)OC1CCC2(C)C(CCC3(C)C2CC=C2C4CC(C)(C)CCC4(C(=O)OCCCOC(=O)C45CCC(C)(C)CC4C4=CCC6C7(C)CCC(OC(C)=O)C(C)(C)C7CCC6(C)C4(C)CC5)CCC23C)C1(C)C (centres unmarked) [Compound 3c] | lower than 1 | 0.99 | 5.51 |  | 5.51 | 5.53 | 1.04 | 5.50 | 0.97 | 5.35 to 5.60 |  | 5.42 | 0.80 |  |  |  |  |  |  |
| CC(=O)OC1CCC2(C)C(CCC3(C)C2CC=C2C4CC(C)(C)CCC4(C(=O)OCCCCCCCCOC(=O)C45CCC(C)(C)CC4C4=CCC6C7(C)CCC(OC(C)=O)C(C)(C)C7CCC6(C)C4(C)CC5)CCC23C)C1(C)C (centres unmarked) [Compound 3j] |  | 2.32 | 5.56 | higher antioxidant activity than OA | 5.19 | 5.57 | 2.32 | 5.55 | 2.28 | 5.35 to 5.60 |  | 5.56 | 2.31 |  |  |  |  |  |  |
| CC(=O)OC1CCC2(C)C(CCC3(C)C2CC=C2C4CC(C)(C)CCC4(C(=O)OCCCCCCCCCOC(=O)C45CCC(C)(C)CC4C4=CCC6C7(C)CCC(OC(C)=O)C(C)(C)C7CCC6(C)C4(C)CC5)CCC23C)C1(C)C (centres unmarked) [Compound 3k] |  | 0.92 | 5.68 | higher antioxidant activity than OA | 5.71 | 5.61 | 0.79 | 5.58 | 0.73 | ~5.70 |  | 5.58 | 0.74 |  |  |  |  |  |  |
| CC(=O)OC1CCC2(C)C(CCC3(C)C2CC=C2C4CC(C)(C)CCC4(C(=O)OCCCCCCCOC(=O)C45CCC(C)(C)CC4C4=CCC6C7(C)CCC(OC(C)=O)C(C)(C)C7CCC6(C)C4(C)CC5)CCC23C)C1(C)C (centres unmarked) [Compound 3i] | lower than 1 | 0.93 | 5.70 |  | 5.73 | 5.72 | 0.97 | 5.71 | 0.96 | ~5.70 |  | 5.70 | 0.92 |  |  |  |  |  | ≥ 5.70 |

— paper PMC11434080, “Acetylation of Oleanolic Acid Dimers as a Method of Synthesis of Powerful Cytotoxic Agents” (Molecules, 2024)
